{"source": "patent US11197863B2", "about": "“Inhibitors of polo-like kinase 4 (PLK4) for treating pediatric embryonal tumors” (ANN AND ROBERT H. LURIE CHILDREN'S HOSPITAL OF CHICAGO, priority 2017, dated 2021)", "key": {"RT and MB cell lines": {"tested_on": "RT and MB cell lines", "experiment": "Clonogenic recovery assay", "assay_type": "cell-based, human", "details": "100 nM for 6 days, then 12 days drug-free", "method": "For each cell line, 200 cells were seeded into 6-well tissue culture plates. […] On the 7th day, cell were washed with IX PBS twice and then incubated with 0.1% DMSO for an additional 12 days. […] The number of colonies was counted. All experiments were performed in triplicates."}, "[1]": {"tested_on": "PLK4 mRNA in MON rhabdoid cells", "experiment": "qPCR for PLK4 expression", "assay_type": "cell-based, human", "details": "10, 50, 100 and 500 nM for 24, 48 and 72 hours vs 0.1% DMSO", "method": "The expression of PLK4 (Hs00179514_m1) in each cell line was verified by TaqMan GE assays (Thermo Fisher Scientific, USA) using the housekeeping gene GAPDH (Hs02758991_g1) as reference. Total RNA (2 μg) was used to make cDNA using the Applied Biosystems High Capacity RNA-to-cDNA kit (Thermo Fisher Scientific). Reactions were performed in triplicate with adequate positive and negative controls. The normalized expression levels were calculated by […] method using the housekeeping gene and a pool of all samples as calibrator."}, "[2]": {"tested_on": "AURKA or other PLK family members", "details": "cited from earlier work"}, "MUSK": {"molecular_target": "MUSK (Homo sapiens, UniProt O15146)", "sequence (O15146 24-869)": "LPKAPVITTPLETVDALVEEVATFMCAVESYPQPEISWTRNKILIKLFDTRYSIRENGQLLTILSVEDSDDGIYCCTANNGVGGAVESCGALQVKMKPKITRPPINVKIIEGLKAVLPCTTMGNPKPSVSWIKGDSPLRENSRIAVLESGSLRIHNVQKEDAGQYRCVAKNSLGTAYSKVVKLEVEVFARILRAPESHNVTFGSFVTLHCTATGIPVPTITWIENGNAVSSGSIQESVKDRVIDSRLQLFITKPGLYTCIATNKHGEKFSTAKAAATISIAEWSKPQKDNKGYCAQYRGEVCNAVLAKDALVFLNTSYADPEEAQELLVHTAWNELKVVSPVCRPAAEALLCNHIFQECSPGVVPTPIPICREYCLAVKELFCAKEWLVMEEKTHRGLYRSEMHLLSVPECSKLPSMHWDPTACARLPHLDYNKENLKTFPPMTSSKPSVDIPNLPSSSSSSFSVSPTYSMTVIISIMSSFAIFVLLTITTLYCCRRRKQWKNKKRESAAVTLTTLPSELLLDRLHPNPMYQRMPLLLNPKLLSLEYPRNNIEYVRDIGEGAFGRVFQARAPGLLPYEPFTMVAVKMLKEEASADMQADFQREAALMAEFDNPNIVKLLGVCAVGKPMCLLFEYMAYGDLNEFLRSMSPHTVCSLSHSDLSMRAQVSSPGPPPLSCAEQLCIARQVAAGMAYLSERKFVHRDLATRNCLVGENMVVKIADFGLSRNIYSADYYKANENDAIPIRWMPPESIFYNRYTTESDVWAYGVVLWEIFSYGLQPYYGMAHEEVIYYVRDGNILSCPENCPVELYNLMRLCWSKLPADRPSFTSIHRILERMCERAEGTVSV", "experiment": "Kinase activity screening (SelectScreen Kinase Profiling)", "assay_type": "biochemical", "details": "10-point titration", "description": "(§3) These assays utilized various formats appropriate to the kinase, its substrate and its activity. Formats included the Z-LYTE™ Kinase Assay that determines the differential sensitivity of phosphorylated and non-phosphorylated peptide substrates to proteolytic cleavage using a FRET-based readout, the Adapta™ Universal Kinase Assay that employs a homogeneous, fluorescence-based immunoassay for the detection of ADP produced by kinases and the LanthaScreen™ Eu Kinase Binding Assay that utilizes an Alexa Fluor™ conjugated “tracer” and an Eu-labeled anti-tag antibody to measure binding of a compound to the kinase target [62]."}, "DAOY and D283 cells [3]": {"tested_on": "DAOY and D283 cells", "experiment": "MTT proliferation assay, MB cell lines", "assay_type": "cell-based, human", "details": "72 hours of treatment vs 0.1% DMSO", "method": "To evaluate cell proliferation, we used TACS MTT Cell Proliferation Assays (Trevigen, USA). We plated 2×10^3 cells on each well of a 96-well plate and the absorbance was measured after 48 and 72 hr at concentrations of 10, 50, 100, 200, and 500 nM. Each experiment was performed in triplicates.\n(§1) For proliferation assay DAOY was plated with 5×10^4 cells per well and D283 was plated with 5×10^5 cells per well."}, "[4]": {"tested_on": "BT-12 AT/RT intracranial xenografts", "experiment": "Intracranial AT/RT xenograft tumors", "assay_type": "in vivo, mice", "details": "7.5 mg/kg/day oral for 21 days", "text": "Six-week-old female athymic mice (rnu/rnu genotype, BALB/c background) were purchased from Envigo (Harlan) and housed under aseptic conditions, which included filtered air and sterilized food, water, bedding, and cages. The Northwestern University Institutional Animal Care and Use Committee approved all animal protocols. The BT-12 AT/RT cell line, which has high expression of PLK4 was modified to express luciferase and injected intracranially in nude mice as previously described. Each mouse was injected with a cell suspension (10,000 cells/3 μL) into the right caudate putamen of the brain. […] Bioluminescence monitoring was performed twice a week throughout the course of the experiment for quantitative measurement of tumor growth and response to therapy. Kaplan-Meier survival analysis was performed to assess survival benefit within the treatment group as compared to controls. Differences between survival curves were calculated using a log-rank test. Brains were resected at 6 hours following completion of the treatment and placed in 4% paraformaldthyde for subsequent histological examination."}, "breast cancer cells": {"tested_on": "breast cancer cells", "details": "Sampson et al.; cited from earlier work"}, "normal breast cells": {"tested_on": "normal breast cells", "details": "Sampson et al.; cited from earlier work"}, "[5]": {"tested_on": "HFF-SCC058 human fibroblasts", "experiment": "Cell cycle analysis by flow cytometry (polyploidy)", "assay_type": "cell-based", "method": "Cell cycle evaluation was performed by staining the cells with PI (Thermo Fisher Scientific, USA) according to manufacturer's instructions. […] Data was analyzed using Modfit LT from Verity Software House. Experiments were performed in triplicates."}, "DAOY MB cells": {"tested_on": "DAOY MB cells", "experiment": "Confluency assay (IncuCyte ZOOM)", "assay_type": "cell-based, human", "details": "increasing concentrations, 48 hour period, p-value=0.029", "method": "For further evaluation of the effect of the PLK4 inhibitor over tumor cell proliferation, confluency was measured over a 48 hour period. MON, BT-12, G401 and DAOY cells were plated in 96-well plates with a density of 6×10^4 per well. […] Confluency was monitored for 48 hours by taking phase contrast images every 2 hours and measured using an IncuCyte ZOOM system (Essen BioScience, USA). Experiments were performed in triplicates."}, "[6]": {"tested_on": "HFF-SCC058 human fibroblasts", "experiment": "Invasion and migration assays (Transwell)", "assay_type": "cell-based", "details": "100 nM, 24 hr", "method": "(§2) Both migration and invasion were assessed using a 24-well Transwell chamber system (Corning, USA).[35] MON cells were plated at 20,000 per well for cell migration and at 50,000 per well coated with matrigel (200 μg/ml, 3 hr of solidification) for cell invasion. HFF-SCC058 cells were used as negative controls. […] All experiments were performed in triplicates."}, "MON cells [7]": {"tested_on": "MON cells", "experiment": "Invasion and migration assays (Transwell)", "assay_type": "cell-based, human", "details": "100 nM, 24 hr", "method": "as §2"}, "[8]": {"tested_on": "MON, G401, BT-12, and BT-16 cells", "experiment": "Clonogenic assay, rhabdoid tumor cell lines", "assay_type": "cell-based, human", "details": "50-200 nM; analyzed 14 days after treatment", "method": "For each cell line, 200 cells were seeded into six-well plates, incubated for 14 days, fixed with formalin, stained with Cresyl violet (ACROS Organics, USA), and the number of colonies counted using Image J software (www.imagej.nih.gov).\nTo evaluate the effect of the PLK4 mutation over cell survival, MON-PLK4-mutated cells were compared with MON-Cas9. […] Controls were treated with 0.1% DMSO. All experiments were performed in triplicates."}, "AURKC": {"molecular_target": "AURKC (Homo sapiens, UniProt Q9UQB9)", "sequence (Q9UQB9 whole entry)": "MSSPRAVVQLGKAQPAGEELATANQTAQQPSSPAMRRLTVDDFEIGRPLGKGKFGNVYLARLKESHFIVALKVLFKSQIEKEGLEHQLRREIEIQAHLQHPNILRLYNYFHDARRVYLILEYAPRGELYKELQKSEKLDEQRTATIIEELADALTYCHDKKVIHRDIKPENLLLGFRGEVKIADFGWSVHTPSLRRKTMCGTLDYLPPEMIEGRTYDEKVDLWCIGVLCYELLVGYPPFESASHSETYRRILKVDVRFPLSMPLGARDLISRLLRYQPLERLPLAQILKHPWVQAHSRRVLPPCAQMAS", "experiment": "Kinase activity screening (SelectScreen Kinase Profiling)", "assay_type": "biochemical", "details": "read-out: kinase activity inhibited", "description": "as §3"}, "MON cells [9]": {"tested_on": "MON cells", "experiment": "Time-lapse assay, nuclear area and volume", "assay_type": "cell-based, human", "details": "100 nM, 48 hours, p-value<0.001", "method": "Cells were plated in 35 mm glass bottom dishes (Cat #150682, Thermo Fisher Scientific, USA) in normal growth medium and allowed to grow overnight. After the treatment medium was added, imaging began immediately. Brightfield images (20×) were taken every 6 minutes at 10 predetermine fields for 48 hours. Images were processed in ZEN 2.3 software (Zeiss, USA)."}, "[10]": {"details": "phase I, adults, preliminary results; cited from earlier work"}, "DAOY and D283 cells [11]": {"tested_on": "DAOY and D283 cells", "experiment": "Migration and invasion assays, MB cell lines", "assay_type": "cell-based, human", "details": "100 nM, 24 hour vs 0.1% DMSO", "method": "as §2, §1"}}, "data": [{"compound": "COc1ccc2c(c1)[C@]1(C[C@H]1c1ccc3c(/C=C/c4ccc(CN5C[C@@H](C)O[C@@H](C)C5)cc4)n[nH]c3c1)C(=O)N2", "note": "[CFI-400945]", "values": [{"measurement": "ability to generate colonies after drug removal", "setting": "RT and MB cell lines", "value": "lost their ability to generate colonies"}, {"measurement": "PLK4 expression (qPCR)", "setting": "[1]", "value": "time dependent decrease in PLK4 expression"}, {"measurement": "inhibition of AURKA or other PLK family members", "setting": "[2]", "value": "no significant inhibition"}, {"measurement": "IC50", "setting": "MUSK", "value": 48.7, "unit": "nM"}, {"measurement": "cell proliferation (MTT)", "setting": "DAOY and D283 cells [3]", "value": "significantly decreased proliferation"}, {"measurement": "growth of intracranial AT/RT tumors (bioluminescence)", "setting": "[4]; p=0.0146", "value": "significantly reduced the growth"}, {"measurement": "survival", "setting": "[4]; p=0.0477, log-rank", "value": "extended the survival"}, {"measurement": "effect on breast cancer cells", "setting": "breast cancer cells", "value": "cell death"}, {"measurement": "effect on normal breast cells", "setting": "normal breast cells", "value": "unaffected"}, {"measurement": "polyploidy", "setting": "[5]", "value": "not affecting"}, {"measurement": "delay in reaching confluency (FC)", "setting": "DAOY MB cells", "value": 1.70}, {"measurement": "invasion and migration", "setting": "[6]", "value": "no effects were observed"}, {"measurement": "invasion and migration", "setting": "MON cells [7]", "value": "significant reduction"}, {"measurement": "colonies (clonogenic assay)", "setting": "[8]", "value": "complete absence of colonies"}, {"measurement": "inhibition at 0.5 µM", "setting": "AURKC", "value": 84, "unit": "%"}, {"measurement": "nuclear area (FC)", "setting": "MON cells [9]", "value": 2.79}, {"measurement": "nuclear volume (FC)", "setting": "MON cells [9]", "value": 4.69}, {"measurement": "tolerability", "setting": "[10]", "value": "well tolerated at doses up to 72 ma"}, {"measurement": "cell migration and invasion", "setting": "DAOY and D283 cells [11]", "value": "significant decrease in cell migration and invasion"}]}]}
